| Structure (SMILES) | logP |
| --- | --- |
| c1csc(N2CCNCC2)n1 | 0.61 |
| Cc1ccccc1N1CCNCC1 | 2.14 |
| Clc1ccccc1N1CCNCC1 | 2.13 |
| c1ccc2nc(N3CCNCC3)ccc2c1 | 2.04 |
| c1ccc2c(N3CCNCC3)nsc2c1 | 2.14 |
| Clc1cccc(N2CCNCC2)c1 | 2.11 |
| Clc1ccc(N2CCNCC2)cc1 | 2.01 |
| c1cnc(N2CCNCC2)nc1 | 0.49 |
| Fc1cnc(N2CCNCC2)nc1 | 0.97 |
| Fc1ccc(N2CCNCC2)cc1 | 1.28 |
| COc1ccccc1N1CCNCC1 | 1.09 |
| c1ccc(N2CCNCC2)nc1 | 0.74 |
| FC(F)(F)c1cccc(N2CCNCC2)c1 | 2.43 |

From the SangsterLogP compilation
